What was measured:
[1] = molecular target: T1, human Nav1.7 channels stably expressed in HEK 293 cells (Homo sapiens, UniProt Q15858); assay: PatchXpress 7000 automated patch-clamp, inactivated state block; type: cell-based; conditions: PatchXpress technique; read-out: Nav 1.7 potency
T1 construct: expressed in transfected cells; host or cells: HEK 293
Description: (§1) For all electrophysiology experiments, offline analysis was used to correct for current rundown and to determine percent inhibition as a function of drug concentration. IC50 values were determined by fitting to the Hill equation.
(§2) Sodium Current Measurements on the PatchXpress 7000®:
(§3) To measure inactivated state block of sodium channels, test compounds were characterized in an automated PatchXpress® assay (Molecular Devices) using a double-pulse protocol on human Nav1.7 and Nav1.5 channels stably expressed in HEK 293 cells. Cells were held at a potential 20 mV negative to V0.5 inact. An 8000 ms pre-pulse 7 mV positive to V0.5 inact was given followed by a hyperpolarizing 2 ms pulse to −120 mV and a 20 ms test pulse to −20 mV. Protocol was applied to cells in the absence, presence of compound and after washout. The temperature of PatchXpress instruments was maintained at 22° C. The following recording solutions were used. Internal solution (mM): 30 CsCl, 5 HEPES, 10 EGTA, 120 CsF, 5 NaF, 2 MgCl2. External solution (mM): 120 NMDG, 40 NaCl, 1 KCl, 0.5 MgCl2, 5 HEPES, 2.7 CaCl2.

[2] = molecular target: T2, human Nav1.5 channels stably expressed in HEK 293 cells (Homo sapiens, UniProt Q14524); assay: as above; type: cell-based; conditions: PatchXpress technique
T2 construct: expressed in transfected cells; host or cells: HEK 293
Description: as §1, §2, §3

T1 sequence (Q15858 whole entry): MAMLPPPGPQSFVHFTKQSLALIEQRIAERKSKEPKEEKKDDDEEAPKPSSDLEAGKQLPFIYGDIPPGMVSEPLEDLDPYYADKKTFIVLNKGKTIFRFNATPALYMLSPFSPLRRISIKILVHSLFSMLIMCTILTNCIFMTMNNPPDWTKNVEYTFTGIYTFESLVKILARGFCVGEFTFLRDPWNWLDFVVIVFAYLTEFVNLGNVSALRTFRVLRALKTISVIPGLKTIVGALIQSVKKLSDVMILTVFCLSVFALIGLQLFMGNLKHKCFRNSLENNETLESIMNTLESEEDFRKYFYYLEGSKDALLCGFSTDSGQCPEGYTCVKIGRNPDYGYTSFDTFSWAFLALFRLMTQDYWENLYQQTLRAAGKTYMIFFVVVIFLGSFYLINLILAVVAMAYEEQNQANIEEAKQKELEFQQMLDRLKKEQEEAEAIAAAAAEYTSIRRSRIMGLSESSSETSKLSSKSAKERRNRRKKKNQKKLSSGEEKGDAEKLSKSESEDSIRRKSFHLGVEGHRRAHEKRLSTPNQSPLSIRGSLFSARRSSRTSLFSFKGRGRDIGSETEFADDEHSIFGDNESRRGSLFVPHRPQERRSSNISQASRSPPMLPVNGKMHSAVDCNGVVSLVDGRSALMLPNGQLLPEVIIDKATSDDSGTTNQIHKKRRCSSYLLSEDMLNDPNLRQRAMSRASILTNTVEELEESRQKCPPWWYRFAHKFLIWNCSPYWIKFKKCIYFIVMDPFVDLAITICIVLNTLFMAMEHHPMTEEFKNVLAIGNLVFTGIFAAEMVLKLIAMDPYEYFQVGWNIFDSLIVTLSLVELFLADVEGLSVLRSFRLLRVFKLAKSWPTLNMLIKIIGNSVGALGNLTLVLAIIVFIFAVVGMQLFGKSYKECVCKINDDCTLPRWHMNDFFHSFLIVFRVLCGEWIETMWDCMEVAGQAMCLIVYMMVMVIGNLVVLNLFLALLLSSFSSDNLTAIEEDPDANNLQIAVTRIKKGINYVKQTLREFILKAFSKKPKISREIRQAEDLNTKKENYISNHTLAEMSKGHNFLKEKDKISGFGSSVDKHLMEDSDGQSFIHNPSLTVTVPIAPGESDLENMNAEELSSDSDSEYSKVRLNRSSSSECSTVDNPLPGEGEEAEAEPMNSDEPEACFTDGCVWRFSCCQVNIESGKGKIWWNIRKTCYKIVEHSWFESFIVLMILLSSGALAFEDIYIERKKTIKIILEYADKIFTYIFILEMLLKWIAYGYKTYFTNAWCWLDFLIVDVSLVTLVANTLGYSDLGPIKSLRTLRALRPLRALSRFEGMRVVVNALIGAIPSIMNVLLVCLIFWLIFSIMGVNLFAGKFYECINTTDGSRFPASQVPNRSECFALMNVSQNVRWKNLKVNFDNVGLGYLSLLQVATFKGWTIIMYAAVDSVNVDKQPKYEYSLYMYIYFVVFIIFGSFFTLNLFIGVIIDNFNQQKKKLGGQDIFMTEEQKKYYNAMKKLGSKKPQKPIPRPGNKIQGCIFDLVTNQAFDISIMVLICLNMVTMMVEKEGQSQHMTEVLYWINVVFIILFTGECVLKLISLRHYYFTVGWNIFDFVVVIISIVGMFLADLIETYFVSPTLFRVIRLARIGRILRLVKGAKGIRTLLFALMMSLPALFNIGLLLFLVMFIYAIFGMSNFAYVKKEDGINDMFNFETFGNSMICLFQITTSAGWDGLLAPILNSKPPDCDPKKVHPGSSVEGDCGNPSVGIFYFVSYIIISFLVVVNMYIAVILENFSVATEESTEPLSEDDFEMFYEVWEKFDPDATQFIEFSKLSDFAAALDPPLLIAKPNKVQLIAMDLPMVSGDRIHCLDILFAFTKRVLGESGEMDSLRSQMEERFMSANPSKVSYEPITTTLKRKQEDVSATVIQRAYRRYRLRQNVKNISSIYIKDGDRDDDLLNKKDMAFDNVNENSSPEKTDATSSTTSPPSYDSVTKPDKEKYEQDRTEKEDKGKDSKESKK
T2 sequence (Q14524 whole entry): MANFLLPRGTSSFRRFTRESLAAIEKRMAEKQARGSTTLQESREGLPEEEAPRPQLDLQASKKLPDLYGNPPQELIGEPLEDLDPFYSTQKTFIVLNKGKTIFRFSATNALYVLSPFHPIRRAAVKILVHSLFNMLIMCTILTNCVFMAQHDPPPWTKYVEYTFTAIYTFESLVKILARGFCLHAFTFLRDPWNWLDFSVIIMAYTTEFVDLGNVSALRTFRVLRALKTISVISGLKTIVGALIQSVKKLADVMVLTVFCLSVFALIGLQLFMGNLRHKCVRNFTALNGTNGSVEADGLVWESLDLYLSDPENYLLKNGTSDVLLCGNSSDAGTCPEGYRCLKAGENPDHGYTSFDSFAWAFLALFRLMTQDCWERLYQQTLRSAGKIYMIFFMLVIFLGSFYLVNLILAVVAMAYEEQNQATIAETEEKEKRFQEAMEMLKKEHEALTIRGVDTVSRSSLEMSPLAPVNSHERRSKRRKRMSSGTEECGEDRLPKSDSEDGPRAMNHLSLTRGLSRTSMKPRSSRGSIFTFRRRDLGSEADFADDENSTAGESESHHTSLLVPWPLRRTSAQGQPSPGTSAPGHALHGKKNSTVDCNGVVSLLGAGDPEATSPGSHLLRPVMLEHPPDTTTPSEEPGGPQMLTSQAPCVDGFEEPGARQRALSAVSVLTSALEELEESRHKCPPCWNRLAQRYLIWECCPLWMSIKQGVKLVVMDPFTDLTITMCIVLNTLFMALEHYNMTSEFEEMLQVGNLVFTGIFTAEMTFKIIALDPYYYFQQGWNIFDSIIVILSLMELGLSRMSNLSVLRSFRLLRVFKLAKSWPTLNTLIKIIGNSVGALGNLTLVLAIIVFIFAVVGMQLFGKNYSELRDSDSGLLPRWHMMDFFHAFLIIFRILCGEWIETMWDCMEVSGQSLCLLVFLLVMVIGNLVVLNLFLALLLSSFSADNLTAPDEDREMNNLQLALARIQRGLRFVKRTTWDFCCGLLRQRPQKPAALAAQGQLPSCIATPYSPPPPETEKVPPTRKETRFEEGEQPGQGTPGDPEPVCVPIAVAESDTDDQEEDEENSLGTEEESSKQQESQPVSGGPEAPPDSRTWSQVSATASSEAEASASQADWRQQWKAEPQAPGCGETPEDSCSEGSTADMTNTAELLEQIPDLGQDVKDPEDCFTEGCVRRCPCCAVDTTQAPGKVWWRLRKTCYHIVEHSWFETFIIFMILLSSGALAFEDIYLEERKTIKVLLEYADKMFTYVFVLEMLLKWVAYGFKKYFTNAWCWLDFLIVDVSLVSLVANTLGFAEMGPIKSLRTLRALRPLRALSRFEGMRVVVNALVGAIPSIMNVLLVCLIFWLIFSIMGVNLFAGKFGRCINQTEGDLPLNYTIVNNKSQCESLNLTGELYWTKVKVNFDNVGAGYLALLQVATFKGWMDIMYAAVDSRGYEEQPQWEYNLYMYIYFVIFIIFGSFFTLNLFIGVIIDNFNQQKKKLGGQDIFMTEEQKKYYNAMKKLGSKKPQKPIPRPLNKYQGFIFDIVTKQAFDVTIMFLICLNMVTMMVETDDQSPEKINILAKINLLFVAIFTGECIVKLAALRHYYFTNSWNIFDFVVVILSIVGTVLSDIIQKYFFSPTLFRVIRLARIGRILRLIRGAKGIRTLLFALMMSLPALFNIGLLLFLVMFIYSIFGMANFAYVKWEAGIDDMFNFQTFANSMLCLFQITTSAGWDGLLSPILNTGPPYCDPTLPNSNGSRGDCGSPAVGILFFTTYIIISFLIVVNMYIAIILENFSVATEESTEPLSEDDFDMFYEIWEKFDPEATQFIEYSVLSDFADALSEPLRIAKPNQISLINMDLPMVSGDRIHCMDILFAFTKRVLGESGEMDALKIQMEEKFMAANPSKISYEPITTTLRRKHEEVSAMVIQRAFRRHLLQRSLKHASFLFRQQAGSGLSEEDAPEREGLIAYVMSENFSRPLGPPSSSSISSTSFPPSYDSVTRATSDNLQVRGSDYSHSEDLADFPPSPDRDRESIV

SMILES | IC50 [1] [nM] | Ratio 1.5:1.7 = Nav 1.5 potency (nM)/Nav1.7 potency (nM) [2]
NCC#Cc1ccccc1Cn1ncc2cc(S(=O)(=O)Nc3nccs3)c(F)cc21 [Ex-29, 1-[2-(3-aminoprop-1-yn-1-yl)benzyl]-6-fluoro-N-1,3-thiazol-2-yl-1H-indazole-5-sulfonamide] | 89 | 302
C[C@H](c1ccccc1C1CNC1)n1ncc2cc(S(=O)(=O)Nc3cccc(F)n3)c(F)cc21 [Ex-40, 1-[(1R)-1-(2-azetidin-3-ylphenyl)ethyl]-6-fluoro-N-(6-fluoropyridin-2-yl)-1H-indazole-5-sulfonamide] | 775 | 11
C[C@H](c1ccccc1C1CCNCC1)n1ncc2cc(S(=O)(=O)Nc3cccc(F)n3)c(F)cc21 [Ex-43, 6-fluoro-N-(6-fluoropyridin-2-yl)-1-[(1R)-1-(2-piperidin-4-ylphenyl)ethyl]-1H-indazole-5-sulfonamide] | 584 | 16
NCC(F)c1ccccc1Cn1ncc2cc(S(=O)(=O)Nc3cccc(F)n3)c(F)cc21 (centres unmarked) [Ex-38, 1-[2-(2-amino-1-fluoroethyl)benzyl]-6-fluoro-N-(6-fluoropyridin-2-yl)-1H-indazole-5-sulfonamide] | 185 | 162
NCCCc1ccccc1Cn1ncc2cc(S(=O)(=O)Nc3cccc(F)n3)c(F)cc21 [Ex-32, 1-[2-(3-amino-propyl)benzyl]-6-fluoro-N-(6-fluoropyridin-2-yl)-1H-indazole-5-sulfonamide] | 64 | 50
NCCCc1ccccc1Cn1ncc2cc(S(=O)(=O)Nc3nccs3)c(F)cc21 [Ex-27, 1-[2-(3-aminopropyl)benzyl]-6-fluoro-N-1,3-thiazol-2-yl-1H-indazole-5-sulfonamide] | 5 | 48
Cc1cc2c(cnn2Cc2cccc3c2CC(N)CC3)cc1S(=O)(=O)Nc1nccs1 (centres unmarked) [Ex-62, 1-[(7-amino-5,6,7,8-tetrahydronaphthalen-1-yl)methyl]-6-methyl-N-1,3-thiazol-2-yl-1H-indazole-5-sulfonamide] | 23 | 762
NC1CCc2cccc(Cn3ncc4cc(S(=O)(=O)Nc5nccs5)c(F)cc43)c2C1 (single isomer, unassigned) [Ex-26, (R or S)-1-[(7-amino-5,6,7,8-tetrahydronaphthalen-1-yl)methyl]-6-fluoro-N-1,3-thiazol-2-yl-1H-indazole-5-sulfonamide] | 5 | 3231
NC1Cc2cccc(Cn3ncc4cc(S(=O)(=O)Nc5cccc(F)n5)c(F)cc43)c2C1 (centres unmarked) [Ex-39, 1-[(2-amino-2,3-dihydro-1H-inden-4-yl)methyl]-6-fluoro-N-(6-fluoropyridin-2-yl)-1H-indazole-5-sulfonamide] | 232 | 129
NC1CCc2cccc(Cn3ncc4cc(S(=O)(=O)Nc5cccc(F)n5)c(F)cc43)c2C1 (single isomer, unassigned) [Ex-31, (R or S)-1-[(7-amino-5,6,7,8-tetrahydronaphthalen-1-yl)methyl]-6-fluoro-N-(6-fluoropyridin-2-yl)-1H-indazole-5-sulfonamide] | 56 | 772
Cc1cc2c(cnn2[C@H](C)c2cccc3c2CNCC3)cc1S(=O)(=O)Nc1cccc(F)n1 [Ex-60, N-(6-fluoropyridin-2-yl)-6-methyl-1-[(1R)-1-(1,2,3,4-tetrahydroisoquinolin-8-yl)ethyl]-1H-indazole-5-sulfonamide] | 58 | 457
C[C@H](c1cccc2c1CNCC2)n1ncc2cc(S(=O)(=O)Nc3ncc(Cl)s3)c(F)cc21 [Ex-54, N-(5-chloro-1,3-thiazol-2-yl)-6-fluoro-1-[(1R)-1-(1,2,3,4-tetrahydroisoquinolin-8-yl)ethyl]-1H-indazole-5-sulfonamide] | 137 | 50
C[C@H](c1cccc2c1CNCC2)n1ncc2cc(S(=O)(=O)Nc3nccs3)c(F)cc21 [Ex-28, 6-fluoro-1-[(1R)-1-(1,2,3,4-tetrahydroisoquinolin-8-yl)ethyl]-N-1,3-thiazol-2-yl-1H-indazole-5-sulfonamide] | 25 | 870
O=S(=O)(Nc1nccs1)c1cc2cnn(Cc3ccccc3C3=CCNCC3)c2cc1F [Ex-30, 6-fluoro-1-[2-(1,2,3,6-tetrahydropyridin-4-yl)benzyl]-N-1,3-thiazol-2-yl-1H-indazole-5-sulfonamide] | 82 | 326

More lines, in order of falling IC50 [1], values ahead:

IC50 [1] [nM] | SMILES | Ratio 1.5:1.7 = Nav 1.5 potency (nM)/Nav1.7 potency (nM) [2]
2530 | NCC#Cc1ccccc1Cn1ncc2cc(S(=O)(=O)Nc3cccc(F)n3)c(F)cc21 [Ex-44, 1-[2-(3-aminoprop-1-yn-1-yl)benzyl]-6-fluoro-N-(6-fluoropyridin-2-yl)-1H-indazole-5-sulfonamide] | 10
1120 | C[C@H](c1ccccc1C1=CCNCC1)n1ncc2cc(S(=O)(=O)Nc3cccc(F)n3)c(F)cc21 [Ex-48, 6-fluoro-N-(6-fluoropyridin-2-yl)-1-{(1R)-1-[2-(1,2,3,6-tetrahydropyridin-4-yl)phenyl]ethyl}-1H-indazole-5-sulfonamide] | 5
825 | O=S(=O)(Nc1cccc(F)n1)c1cc2cnn(Cc3cccc4c3CNC4)c2cc1F [Ex-42, 1-(2,3-dihydro-1H-isoindol-4-ylmethyl)-6-fluoro-N-(6-fluoropyridin-2-yl)-1H-indazole-5-sulfonamide] | 36
689 | C[C@H](c1ccccc1C#C[C@H]1CCCC[C@H]1N)n1ncc2cc(S(=O)(=O)Nc3cccc(F)n3)c(F)cc21 [Ex-50, 1-[(1R)-1-(2-{[(1R,2R)-2-amino-cyclohexyl]ethynyl}phenyl)ethyl]-6-fluoro-N-(6-fluoropyridin-2-yl)-1H-indazole-5-sulfonamide] | 17
661 | O=S(=O)(Nc1cccc(F)n1)c1cc2cnn(Cc3cccc4c3CNCC4F)c2cc1F (centres unmarked) [Ex-49, 6-fluoro-N-(6-fluoropyridin-2-yl)-1-[(4-fluoro-1,2,3,4-tetrahydro-isoquinolin-8-yl)methyl]-1H-indazole-5-sulfonamide] | 45
423 | C[C@H](c1ccccc1C#CCN)n1ncc2cc(S(=O)(=O)Nc3cccc(F)n3)c(F)cc21 [Ex-46, 1-{(1R)-1-[2-(3-aminoprop-1-yn-1-yl)phenyl]ethyl}-6-fluoro-N-(6-fluoropyridin-2-yl)-1H-indazole-5-sulfonamide] | 41
381 | C[C@H](c1ccccc1CCCN)n1ncc2cc(S(=O)(=O)Nc3cccc(F)n3)c(F)cc21 [Ex-33, 1-{(1R)-1-[2-(3-amino-propyl)phenyl]ethyl}-6-fluoro-N-(6-fluoropyridin-2-yl)-1H-indazole-5-sulfonamide] | 228
8 | NC1CCc2cccc(Cn3ncc4cc(S(=O)(=O)Nc5ncc(Cl)s5)c(F)cc43)c2C1 (centres unmarked) [Ex-53, 1-[(7-amino-5,6,7,8-tetrahydronaphthalen-1-yl)methyl]-N-(5-chloro-1,3-thiazol-2-yl)-6-fluoro-1H-indazole-5-sulfonamide] | 1193

Reference: US9388179B2, “N-substituted indazole sulfonamide compounds with selective activity in voltage-gated sodium channels” (Merck Sharp & Dohme Corp., priority 2012, dated 2016)
